Reference: article PMC1805503 (Beilstein Journal of Organic Chemistry, 2007)

Legend:
KOR = tested on: KOR; parameters: method as in PMID 14718611; conditions: [3H]bremazocine as radiolabeled ligand; cited from earlier work
human KOR = molecular target: T1, human KOR (Homo sapiens, UniProt P41145); experiment: biochemical; conditions: read-out: Emax ± SEM
T1 construct: expressed in transfected cells; host or cells: CHO cells expressing hKOR (membranes), according to the assay names of the earlier reading
T1 sequence (P41145 whole entry): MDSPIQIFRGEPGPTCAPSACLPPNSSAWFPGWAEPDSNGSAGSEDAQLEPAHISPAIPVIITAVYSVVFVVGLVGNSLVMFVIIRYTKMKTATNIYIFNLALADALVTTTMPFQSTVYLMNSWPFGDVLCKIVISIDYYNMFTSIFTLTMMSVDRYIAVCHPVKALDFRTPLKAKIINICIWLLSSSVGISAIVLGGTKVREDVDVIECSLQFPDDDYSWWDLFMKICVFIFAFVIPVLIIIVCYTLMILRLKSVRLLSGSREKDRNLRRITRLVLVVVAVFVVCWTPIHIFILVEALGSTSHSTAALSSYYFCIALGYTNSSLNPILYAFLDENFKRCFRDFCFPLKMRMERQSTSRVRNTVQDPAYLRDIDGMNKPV

Row | Compound | activity at the KOR (in words), early report (KOR) | Emax (human KOR) [%]
1 | COC(=O)[C@@H]1C[C@H](O)C(=O)[C@H]2[C@@]1(C)CC[C@H]1C(=O)O[C@H](c3ccoc3)C[C@]21C [Compound 2a, salvinorin B] | inactive | 
2 | COC(=O)C1CC(O)C(=O)C2C1(C)CCC1C(=O)OC(c3ccoc3)CC12C (stereo not drawn) [Compound 2b, 8-epi-salvinorin B] |  | 90 ± 2
